Key:
lung tumor LLC cells = test: LLC cell viability (CellTiter-Fluor) as readout of proliferation; assay type: cell-based, murine; settings: 5 mM ALA at day 0, no medium refresh
ALAS1 = test: qRT-PCR analysis of ALAS1 expression in SKCO1 cells; assay type: cell-based, human
SHSY5Y cells = test: Flow cytometric analysis of apoptosis in SHSY5Y cells; assay type: cell-based, human; settings: 5 mM ALA for 72 hours
SH-SY5Y cells = test: Heme content in SHSY-5Y cells; assay type: cell-based, human
Excerpt: (A) Frequency (%) of patient tumors with overexpression of FLVCR1 compared to their matched normal tissues across multiple cancer types. The number of patients showing tumor FLVCR1 overexpression relative to the total number of patients examined are indicated in the plot. Data derive from the BioXpress (Wan et al., 2015). […] Transcript abundance, normalized to beta-actin mRNA expression (for SHSY-5Y cells) or to 18s mRNA (for BTECs), is expressed as a fold increase over a calibrator sample. Data represent mean±SEM, n=4. For statistical analyses, an unpaired Student's t-test was used; ***p<0.001. (C, E) Western blot analysis of FLVCR1a expression in SHSY-5Y cells (C) and BTECs (E). Vinculin expression is shown as a loading control. Band intensities were measured by densitometry and normalized to vinculin expression. […] Values are expressed as pmol heme/mg protein. […] Values are expressed as pmol heme/mg protein. […]
(A) Heme content in SHSY5Y cells non-treated (NT) or treated with 5 mM ALA for 15 hours. Values are expressed as pmol heme/mg protein. […] Transcript abundance, normalized to beta-actin mRNA expression, is expressed as a fold increase over a calibrator sample. […] Transcript abundance, normalized to beta-actin mRNA expression, is expressed as a fold increase over a calibrator sample. […] Band intensities were measured by densitometry and normalized to beta-actin expression. […]

| Compound | cell proliferation (cell viability) (lung tumor LLC cells) | ALAS1 mRNA levels (ALAS1; SKCO1 cells, 5 mM ALA for 24 hours vs untreated) | apoptosis (SHSY5Y cells) | heme content inside the cells (SH-SY5Y cells; 5 mM ALA for 15 hours vs non-treated) | ALAS1 expression (qRT-PCR) (ALAS1; FLVCR1a-silenced vs scramble shRNA SKCO1 cells) | heme accumulation upon stimulation of de-novo heme biosynthesis (SH-SY5Y cells; FLVCR1a-silenced vs scramble shRNA, 5 mM 5-ALA for 15 hours) |
| --- | --- | --- | --- | --- | --- | --- |
| Cl.NCC(=O)CCC(=O)O [5-ALA, 5-Aminolevulinic acid hydrochloride] | significantly reduced | decreased | increased apoptosis | promoted heme accumulation inside the cells | – | – |
| FLVCR1a shRNA: shRNA specifically down-regulating FLVCR1a without targeting FLVCR1b; pLKO.1 lentiviral clone TRCN0000059599, antisense SEQ ID No.: 2 (antisense TTGCTAATGATGCTGTACTGG; sense CCAGTACAGCATCATTAGCAA) | – | – | – | – | reduced ALAS1 expression | higher heme accumulation than controls |

— patent US20240285670A1, “THERAPEUTIC TREATMENT OF TUMORS BY BLOCKING THE HEME SYNTHESIS-EXPORT AXIS” (Università degli Studi di Torino, priority 2021, published 2024)
